# In US20210017607A1, “Methods of Predicting Responsiveness to Cancer Therapies” (The University of Chicago, priority 2019, published 2021):
# System: Myc-CAP (STING^lo) cells
# Test: p-γH2AX foci (DNA DSBs) by confocal microscopy
# Assay type: cell-based, mouse
# From the text: FIGS. 29A-29M. PARPi alone induces DNA DSBs, but not apoptosis even in combination with PI3Ki in Myc-CAP (STING^lo) cancer cells; PARPi/PI3Ki combination induces intracellular DNA DSBs and proportionate release of MV surface-associated DNA DSBs from B6-Myc (STINGhi) cancer cells without affecting cellular viability; PARPi/PI3K treatment activates tumor-cell extrinsic cGAS/STING pathway within TAMs in vivo via MV surface-associated DNA DSBs released from tumor cells. Myc-CAP cancer cells were treated with the indicated drugs singly or in combination for 36 hours. (29A) Cells were stained with anti-mouse specific p-γH2AX antibody and a fluorescently labeled secondary antibody for determination of DNA DSBs, which were quantified by confocal microscopy. (29B) Protein extracts from cells in 29A were analyzed for the indicated pharmacodynamic biomarkers by western blotting; (29C) Annexin V-PI staining was done to assess frequency of live cells (Annexin V^− PI^−) following drug treatment. (29D) Ultracentrifugation was utilized to purify microvesicles (MVs) from supernatants in treatment groups in (29A) and associated DNA DSBs was quantified by Nanodrop®. Independent experiments n=2. (29E) Ultracentrifugation was utilized to purify MVs from supernatants in indicated treatment groups in FIG. 17A, and associated DNA DSBs were quantified by Nanodrop®; n=2 independent experiments. […]
Compound,"DNA damage on addition to rucaparib, relative to rucaparib alone",DNA DSBs (number of p-γH2AX foci) (36 hours)
Nc1cc(C(F)(F)F)c(-c2cc(N3CCOCC3)nc(N3CCOCC3)n2)cn1 [buparlisib],did not further increase DNA damage,–
CNCc1ccc(-c2[nH]c3cc(F)cc4c3c2CCNC4=O)cc1 [rucaparib],–,increase in DNA DSBs
